{
  "source": "patent US8071575B2",
  "about": "“Methods and compounds for the targeted delivery of agents to bone for interaction therewith” (priority 2007, dated 2011)",
  "key": {"[1]": {"tested_on": "SUM1315 human breast cancer cells", "assay": "Anti-cancer effect: colony formation assay", "assay_type": "cell-based", "details": "0.05, 0.1, 0.5, 1, 5, and 10 μM, 10 days", "procedure": "Anti-Cancer Effect: Colony formation assay. The anti-cancer effect of compounds including a bone active portion (RA) derived from an anti-cancer agent was tested. SUM1315 human breast cancer cells (derived from a clinical metastatic nodule) were seeded in 6 well plates at 5000 cells/well in 2 ml of medium. Cells were allowed to adhere overnight prior to drug treatment. Compounds of the presently-disclosed subject matter including a bone active portion (RA) derived from an anti-cancer agent, or the free anti-cancer agent, were added to the cells at concentrations of 0.05, 0.1, 0.5, 1, 5, and 10 μM and cells were allowed to grow at 37° C. for 10 days. In addition, untreated and vehicle (0.1% DMSO) treated wells were included as controls. After 10 days of treatment, medium was removed from each well and cells were subsequently washed with water. Cells were then fixed in 10% formaldehyde for 10 minutes, washed with water and then stained with 0.5% crystal violet for 5 minutes. Colonies of cells were subsequently counted under the microscope in three separate frames. Three independent experiments were performed and the results are an average of the three experiments. Images were obtained from a representative well for each concentration."}, "[2]": {"tested_on": "SUM1315 human breast cancer cells", "assay": "Anti-cancer effect: cell proliferation (MTT) assay", "assay_type": "cell-based", "details": "0.05, 0.1, 0.5, 1, 5, and 10 μM, days 1-6", "text": "Anti-Cancer Effect: Cell Proliferation Assay. The colorometric MTT assay is based on the cleavage of a yellow MTT tetrazolium salt to form purple formazan crystals by the mitochondria of metabolically active and viable cells. The formazan crystals are insoluble in aqueous solution but can be dissolved in acid and quantified using a spectrophotometer. The number of living and viable cells in a sample directly correlates to the amount of purple formazan crystals formed. SUM1315 human breast cancer cells were seeded in triplicate in 96 well plates at 1000 cells/well and were allowed to adhere overnight prior to drug treatment. Compounds of the presently-disclosed subject matter including a bone active portion (RA) derived from an anti-cancer agent, or the free anti-cancer agent, were added to the cells at concentrations of 0.05, 0.1, 0.5, 1, 5, and 10 μM and cells were allowed to grow at 37° C. for 1, 2, 3, 4, 5, or 6 days. In addition, untreated and vehicle (0.1% DMSO) treated wells were included at each time point as controls. Following treatment the MTT assay was subsequently performed and the absorbance at 490 nm was recorded. Three independent experiments were performed and the results were averaged."}, "[3]": {"assay": "Hydroxyapatite (HA) Binding Assay", "details": "10^−5 M analyte, 50 mM Tris-HCl pH 7.4, 1% DMSO; adjusted such that tetracycline = 100", "procedure": "A Hydroxyapatite (HA) Binding Assay is used to determine whether compounds have an affinity for bone. Compounds of the presently-disclosed subject matter having a Bone Targeting Portion (RT) are studied using the HA Binding Assay. A 10^−3 M solution of each analyte was made in 100% dimethylsulfoxide (DMSO). A 100 fold dilution was then made to form a 10^−5 M solution in 50 mM Tris-HCl buffer, pH 7.4, 1% DMSO. Tetracycline was used as a reference analyte and approximately 50% was adsorbed to HA at the concentration of 10^−5 M. The HA slurry was 0.5 g/100 mL 50 mM Tris-HCl buffer, 1% DMSO.\nFor each analyte, two samples were prepared. For one sample, 1 mL of 10^−5 M analyte and 100 μL 50 mM Tris-HCl buffer, 1% DMSO was pipetted into a microcentrifuge tube. For the second sample, 1 mL of 10^−5 M analyte and 100 μL of the HA slurry was pipetted into a microcentrifuge tube. The samples were mixed gently by inversion for 4 minutes and then centrifuged at 12,000 g for 3 minutes to sediment the HA contained in those samples. The supernatant was transferred to another microcentrifuge tube.\nAn electronic spectral scan (ultraviolet-visible) from 220-520 nm was obtained for each analyte using a Varian Cary 300 Bio Scan. The blank was 50 mM Tris-HCl buffer, 1% DMSO. The wavelength of maximum absorbance (λmax) was determined, and the extinction coefficient (ε) was calculated using the Beer-Lambert Law.\nThe absorbance of the samples incubated with HA was measured at λmax, and the molar concentration of the analyte was then determined using the Beer-Lambert Law and the previously calculated extinction coefficient. The fraction adsorbed to HA for each sample was subsequently calculated."}, "[4]": {"tested_on": "Staphylococcus aureus ATCC 49230", "assay": "MIC, broth microdilution, S. aureus ATCC 49230", "assay_type": "cell-based", "details": "ATCC49230, read-out: minimum inhibitory concentration (MIC)", "procedure": "(§1) Antimicrobial Effect: Minimum Inhibitory Concentration (MIC) of a Test Compound Against Isolates of Staphylococcus aureus. The Minimum inhibitory concentration (MIC) of compounds of the presently-disclosed subject matter including a bone active portion (RA) derived from an antimicrobial agent, and free antimicrobial agents, were determined by Ricerca Biosciences LLC (Concord, Ohio) using the standard in vitro broth microdilution assay (CLSI). Two isolates of S. aureus, one resistant to Methicillin (ATCC 33591) and one nonresistant to Methicillin (ATCC 49230) were used for the evaluation. ATCC 49230 is a clinical isolate from a patient with chronic osteomyelitis. Additionally, a quality control isolate (ATCC 29213) was included in the analysis. Briefly, twelve, serial, one-half dilutions of compounds of the presently-disclosed subject matter including a bone active portion (RA) derived from an antimicrobial agent, and free antimicrobial agents, were prepared in 96-well plates in Mueller Hinton Broth (MHB). The highest concentration of each compound used was 64 μg/mL. Bacterial suspensions were prepared and added to each well at a concentration of approximately 5×10^5 colony-forming-units per milliliter. The inoculated plates were incubated for 16-20 h at 35±1° C. At the completion of incubation, the wells of each plate were evaluated visually for the presence of bacterial growth. […]"}, "[5]": {"tested_on": "Staphylococcus aureus ATCC 29213", "details": "ATCC 29213, QC strain, acceptance range; cited from earlier work"}, "[6]": {"tested_on": "Staphylococcus aureus ATCC 29213", "assay": "MIC, broth microdilution, S. aureus ATCC 29213 (QC strain)", "assay_type": "cell-based", "details": "ATCC29213, read-out: minimum inhibitory concentration (MIC)", "procedure": "as §1"}, "[7]": {"tested_on": "Staphylococcus aureus ATCC 33591", "assay": "MIC, broth microdilution, S. aureus ATCC 33591 (MRSA)", "assay_type": "cell-based", "details": "read-out: minimum inhibitory concentration (MIC)", "procedure": "as §1"}},
  "data": [
    {"smiles": "COc1cccc2c1C(=O)c1c(O)c3c(c(O)c1C2=O)C[C@@](O)(C(=O)CO)C[C@H]3OC1C[C@H](NC(=O)CCCC(=O)NCCOCCOCC(=O)Nc2ccc(OC)c(C(N)=O)c2O)[C@H](O)[C@H](C)O1", "note": "(stereo partly shown) [Formula 138]", "values": [
      {"measurement": "colony formation", "setting": "[1]", "result": "dose-responsive decrease in colony formation"},
      {"measurement": "cell proliferation (MTT)", "setting": "[2]", "result": "dose-responsive decrease in cell proliferation"},
      {"measurement": "Binding Index (binding to hydroxyapatite)", "setting": "[3]", "result": 60}
    ]},
    {"smiles": "CN[C@H](CC(C)C)C(=O)N[C@H]1C(=O)N[C@@H](CC(N)=O)C(=O)N[C@H]2C(=O)N[C@H]3C(=O)N[C@H](C(=O)N[C@H](C(=O)O)c4cc(O)cc(O)c4-c4cc3ccc4O)[C@H](O)c3ccc(c(Cl)c3)Oc3cc2cc(c3O[C@@H]2O[C@H](CO)[C@@H](O)[C@H](O)[C@H]2O[C@H]2C[C@](C)(N)[C@H](O)[C@H](C)O2)Oc2ccc(cc2Cl)[C@H]1O", "note": "[vancomycin]", "values": [
      {"measurement": "MIC", "setting": "[4]", "result": 1, "unit": "µg/mL"},
      {"measurement": "acceptable vancomycin MIC range", "setting": "[5]", "result": "^cQC strain: Acceptable vancomycin MIC range: 0.5-2 μg/mL"},
      {"measurement": "MIC", "setting": "[6]", "result": 1, "unit": "µg/mL"},
      {"measurement": "MIC", "setting": "[7]", "result": 1, "unit": "µg/mL"}
    ]}
  ]
}
